These are literature values, as cited in patent US8440424B2, “Identification of antibiotic resistance using labelled antibiotics” (miacom Diagnostics GmbH, priority 2008, dated 2013).

Read-outs that look alike come from different tables or passages of the source. Positions of bridges follow the written chain, without caps; N, C: chain ends. Non-standard residues stand in square brackets, D forms with d. Residues, ends and D or L forms follow the SMILES beside them. *: point of attachment. NMePhe(4-NMe2) = CN[C@@H](Cc1ccc(N(C)C)cc1)C(=O)O; Pip(4-oxo) = O=C1CCN[C@H](C(=O)O)C1; Picolinoyl(3-OH) = O=C(c1ncccc1O)*; Phg = N[C@H](C(=O)O)c1ccccc1; dAbu = CC[C@@H](N)C(=O)O

This data set concerns 23S rRNA. The settings on record: cited from earlier work.
Where [1] appears, read: 23S rRNA position 2611 "C to G", Chlamydomonas reinhardtii, Harris et al. 1989.
Where [2] appears, read: 23S rRNA position 2611 "C to U", Chlamydomonas reinhardtii, Harris et al. 1989.

As for `C[C@H]1O[C@H](O[C@H]2CC[C@H](n3ccc(NC(=O)c4ccc(NC(=O)[C@@](C)(N)CO)cc4)nc3=O)O[C@@H]2C)[C@H](O)[C@@H](O)[C@@H]1N(C)C` [Amicetin], the Phenotype result is, setting by setting: (23S rRNA position 2438 U to A, Halobacterium halobium, Leviev 1994) “Amicetin resistance”; (23S rRNA position 2438 U to C, Halobacterium halobium, Leviev 1994) “Amicetin resistance”.
With `COc1ccc(C[C@H]2NC[C@H](O)[C@H]2OC(C)=O)cc1` [Animosycin], the Phenotype entry runs as follows: (23S rRNA position 2452 C to U, Halobacterium, Hummel 1987) “Animosycin resistance”; (23S rRNA position 2452 C to U, Tetrahymena thermophilia, Sweeney 1991) “Animosycin resistance”.
On to `COc1ccc(C[C@H]2NC[C@H](O)[C@H]2OC(C)=O)cc1` [Anisomycin], for which the Phenotype result (23S rRNA position 2447 G to C, Halobacterium halobium, Hummel 1987) is “resistance” and the Phenotype entry (23S rRNA position 2453 A to C, Halobacterium halobium, Hummel 1987) is given as “Anisomycin resistance”.
Take `O=C(N[C@H](CO)[C@H](O)c1ccc([N+](=O)[O-])cc1)C(Cl)Cl` [CAM]: the Phenotype entry (23S rRNA position 2505 G to C (with A1067U and thiostrepton), E. coli, Saarma 1992, 1993) is given as “Hypersensitivity to CAM;”.
Take `O=C(N[C@H](CO)[C@H](O)c1ccc([N+](=O)[O-])cc1)C(Cl)Cl` [Chloramphenicol]: the Phenotype entry is “resistance” (23S rRNA position 2061 G to A, Rat mitochondria); “resistance” (23S rRNA position 2062 A to C, Halobacterium halobium); “resistance” (23S rRNA position 2447 G to A, Yeast mitochondria, Dujon 1980); “resistance” (23S rRNA position 2451 A to U, Mouse mitochondria, Kearsey 1981); “resistance” (23S rRNA position 2452 C to A, Human mitochondria, Blanc 1981); “resistance” (23S rRNA position 2452 C to U, Halobacterium halobium, Mankin 1991). Also, the Phenotype entry is listed as “resistance” (23S rRNA position 2452 C to U, Mouse mitochondria, Slott 1983); “resistance” (23S rRNA position 2503 A to C, Yeast mitochondria, Dujon 1980); “resistance” (23S rRNA position 2504 U to C, Human mitochondria, Kearsey 1981); “resistance” (23S rRNA position 2504 U to C, Mouse mitochondria, Blanc 1981).
Turning to `CC[C@H]1OC(=O)[C@H](C)[C@@H](O[C@H]2C[C@@](C)(OC)[C@@H](O)[C@H](C)O2)[C@H](C)[C@@H](O[C@@H]2O[C@H](C)C[C@H](N(C)C)[C@H]2O)[C@](C)(OC)C[C@@H](C)C(=O)[C@H](C)[C@@H](O)[C@]1(C)O` [Clarithomycin], the Phenotype entry (23S rRNA position 2059 A to G, Helicobacter pylori) is recorded as “resistance”.
For `CC[C@H]1OC(=O)[C@H](C)[C@@H](O[C@H]2C[C@@](C)(OC)[C@@H](O)[C@H](C)O2)[C@H](C)[C@@H](O[C@@H]2O[C@H](C)C[C@H](N(C)C)[C@H]2O)[C@](C)(OC)C[C@@H](C)C(=O)[C@H](C)[C@@H](O)[C@]1(C)O` [Clarithromycin], the Phenotype result (23S rRNA position 2058 A to G, Helicobacter pylori) is reported as “resistance”.
Regarding `CC[C@H]1OC(=O)[C@H](C)[C@@H](O[C@H]2C[C@@](C)(OC)[C@@H](O)[C@H](C)O2)[C@H](C)[C@@H](O[C@@H]2O[C@H](C)C[C@H](N(C)C)[C@H]2O)[C@](C)(O)C[C@@H](C)C(=O)[C@H](C)[C@@H](O)[C@]1(C)O` [Ery], the Phenotype entry (23S rRNA double mutation (A2058U/G2032A), E. coli) is given as “hs”; the Phenotype entry (23S rRNA double mutation (G2032A/A2058U), E. coli) is reported as “hs”; the Phenotype result (23S rRNA double mutation (G2057A/C2661U), E. coli) was “Slightly Eryr;”; the Phenotype entry under setting [1] is “Eryr”; the Phenotype result under setting [2] is listed as “Eryr”; the Phenotype entry (23S rRNA position 2611 "C to U", double mutation (C2611U/G2057A), E. coli, Vester et al. 1995) was “Slightly Eryr; reduced”.
For `CC[C@H]1OC(=O)[C@H](C)[C@@H](O[C@H]2C[C@@](C)(OC)[C@@H](O)[C@H](C)O2)[C@H](C)[C@@H](O[C@@H]2O[C@H](C)C[C@H](N(C)C)[C@H]2O)[C@](C)(O)C[C@@H](C)C(=O)[C@H](C)[C@@H](O)[C@]1(C)O` [Erythromycin], the Phenotype result reads like this: (23S rRNA double deletion (1230/1231), E. coli) “Erythromycin sensitive. a Double”; (23S rRNA double mutant (C1207U/C1243U), E. coli) “Erythromycin resistant. a Double”; (23S rRNA double mutant (C1208U/C1243U), E. coli) “Erythromycin resistant. a Double”; (23S rRNA double mutant (C1211U/C1208U), E. coli) “Erythromycin sensitive. a Double”; (23S rRNA double mutant (C1221U/C1229U), E. coli) “Erythromycin resistant. a Double”; (23S rRNA double mutant (C1221U/C1233U), E. coli) “Erythromycin resistant. a Double”. For the same molecule, the Phenotype result is reported as “Erythromycin resistant. a Double” (23S rRNA double mutant (C1243U/C1221U), E. coli); “Erythromycin resistant. a Double” (23S rRNA double mutant (G1220A/G1239A), E. coli); “Erythromycin sensitive. a Double” (23S rRNA double mutant (G1232A/G1238A), E. coli); “Erythromycin sensitive. a” (23S rRNA position 1233 C to U, E. coli); “Erythromycin sensitive. a” (23S rRNA position 1234 U to C, E. coli); “Erythromycin sensitive. a Double” (23S rRNA position 1234 del1234/del1235, double mutant (U1234C/del1235), E. coli). In addition, the Phenotype entry (23S rRNA position 2058 A to G, Yeast mitochondria) was “resistance”; the Phenotype result (23S rRNA position 2611 "C to G", Chlamydomonas reinhardtii, Gauthier et al. 1988) is “spiramycin resistance”; the Phenotype result (23S rRNA position 2611 "C to G", Yeast mitochondria, Sor and Fukahara 1984) is listed as “spiramycin resistance”.
Regarding `CCC[C@@H]1C[C@@H](C(=O)N[C@@H]([C@H]2O[C@H](SC)[C@H](O)[C@@H](O)[C@H]2O)[C@@H](C)O)N(C)C1` [Lincomycin], the Phenotype result (23S rRNA position 2032 G to A, Tobbaco chloroplasts) is “resistance”; the Phenotype entry (23S rRNA position 2058 A to G, Chlamydomonas reinhardtii) is “resistance”; the Phenotype result (23S rRNA position 2058 A to G, Solanum nigrum) was “resistance”; the Phenotype entry (23S rRNA position 2058 A to G, Tobacco chloroplasts) is listed as “resistance”; the Phenotype entry (23S rRNA position 2059 A to G, Tobacco chloroplasts) is reported as “resistance”.
As for `CSC[S@+]([O-])C[C@H](CO)NC(=O)/C=C/c1c(C)[nH]c(=O)[nH]c1=O` [Sparsomycin], the Phenotype entry (23S rRNA position 2499 C to U, Halobacterium halobium, Tan 1996) is given as “resistance”.
In the case of `O=C(N[C@H](CO)[C@H](O)c1ccc([N+](=O)[O-])cc1)C(Cl)Cl` [chloramphenicol], for the setting “23S rRNA position 2505 G to A, E. coli, Hansen 1999”, the Phenotype result is given as “Conferred resistance to”.
Consider `CC[C@H]1OC(=O)[C@H](C)[C@@H](O[C@H]2C[C@@](C)(OC)[C@@H](O)[C@H](C)O2)[C@H](C)[C@@H](O[C@@H]2O[C@H](C)C[C@H](N(C)C)[C@H]2O)[C@](C)(O)C[C@@H](C)C(=O)[C@H](C)[C@@H](O)[C@]1(C)O` [erythromycin], for which the Phenotype entry is “Wild-type growth on” (23S rRNA double mutant (A1262G/U2017C), E. coli, growth on erythromycin); “Wild-type growth on” (23S rRNA double mutant (A1262U/U2017A), E. coli, growth on erythromycin); “lethal when expressed from rrnB” (23S rRNA double mutant (G1137A/G1138C), E. coli, with 2058G and erythromycin, expressed from rrnB promoter); 2058G) Lethal when (23S rRNA position 1068 G to A, E. coli, with 2058G, expressed from rrnB or pL promotor in presence of erythromycin); “Lethal when expressed from” (23S rRNA position 1072 C to U, E. coli, expressed from rrnB or pL promotor in presence of erythromycin); “lethal when expressed from rrnB” (23S rRNA position 1137 G to A, E. coli, with 2058G and erythromycin, expressed from rrnB promoter). In addition, the Phenotype result is listed as “lethal when expressed from rrnB” (23S rRNA position 1138 G to C, E. coli, with 2058G and erythromycin, expressed from rrnB promoter); “With erythromycin; lethal” (23S rRNA position 1262 A to C, E. coli, with erythromycin); “With erythromycin; lethal” (23S rRNA position 1262 A to G, E. coli, with erythromycin).
Turning to `CCC[C@@H]1C[C@@H](C(=O)N[C@@H]([C@H]2O[C@H](SC)[C@H](O)[C@@H](O)[C@H]2O)[C@@H](C)O)N(C)C1` [lincomycin], the Phenotype entry under setting [1] is given as “low level” and the Phenotype entry under setting [2] is listed as “low level”.
On to `CC[C@H]1NC(=O)[C@@H](NC(=O)c2ncccc2O)[C@@H](C)OC(=O)[C@H](c2ccccc2)NC(=O)[C@@H]2CC(=O)CCN2C(=O)[C@H](Cc2ccc(N(C)C)cc2)N(C)C(=O)[C@@H]2CCCN2C1=O` [pristinamycin 1A] ({Picolinoyl(3-OH)}-T[dAbu]P[NMePhe(4-NMe2)][Pip(4-oxo)][Phg]; ester 1-C), for which the Phenotype result reads like this: (23S rRNA A2602C/C2501A, E. coli, binding on peptidyl transferase loop, Porse 1999) “Inhibits binding of 1A”; (23S rRNA U2500A/C2501A, E. coli, binding on peptidyl transferase loop, Porse 1999) “Inhibits binding of 1A”.
